Numbers after ± are expanded uncertainties.
Details: Liquid, Closed cell (Static) method

## F/C=C\C(F)(F)F [(Z)-1,3,3,3-tetrafluoro-1-propene]
238.13 K
  vapor or sublimation pressure: 12 ± 2 kPa
243.1 K
  vapor or sublimation pressure: 16 ± 2 kPa
248 K
  vapor or sublimation pressure: 21 ± 2 kPa
252.9 K
  vapor or sublimation pressure: 27 ± 2 kPa
257.81 K
  vapor or sublimation pressure: 34 ± 2 kPa
263.02 K
  vapor or sublimation pressure: 44 ± 2 kPa
267.91 K
  vapor or sublimation pressure: 55 ± 2 kPa
272.83 K
  vapor or sublimation pressure: 68 ± 2 kPa
277.94 K
  vapor or sublimation pressure: 85 ± 2 kPa
282.78 K
  vapor or sublimation pressure: 102 ± 2 kPa
283.15 K
  vapor or sublimation pressure: 103 ± 2 kPa
285.15 K
  vapor or sublimation pressure: 111 ± 2 kPa
287.15 K
  vapor or sublimation pressure: 120 ± 2 kPa
287.62 K
  vapor or sublimation pressure: 123 ± 2 kPa
289.15 K
  vapor or sublimation pressure: 129 ± 2 kPa
291.15 K
  vapor or sublimation pressure: 139 ± 2 kPa
292.62 K
  vapor or sublimation pressure: 148 ± 2 kPa
293.15 K
  vapor or sublimation pressure: 149 ± 2 kPa
295.15 K
  vapor or sublimation pressure: 160 ± 2 kPa
297.15 K
  vapor or sublimation pressure: 172 ± 2 kPa
298 K
  vapor or sublimation pressure: 178 ± 2 kPa
299.15 K
  vapor or sublimation pressure: 184 ± 2 kPa
301.15 K
  vapor or sublimation pressure: 198 ± 2 kPa
303.15 K
  vapor or sublimation pressure: 211 ± 2 kPa
303.18 K
  vapor or sublimation pressure: 212 ± 2 kPa
305.15 K
  vapor or sublimation pressure: 225 ± 2 kPa
307.15 K
  vapor or sublimation pressure: 241 ± 2 kPa
308.18 K
  vapor or sublimation pressure: 249 ± 2 kPa
309.15 K
  vapor or sublimation pressure: 256 ± 2 kPa
311.15 K
  vapor or sublimation pressure: 273 ± 2 kPa
313.15 K
  vapor or sublimation pressure: 291 ± 2 kPa
313.17 K
  vapor or sublimation pressure: 291 ± 2 kPa
315.15 K
  vapor or sublimation pressure: 309 ± 2 kPa
317.15 K
  vapor or sublimation pressure: 329 ± 2 kPa
318.14 K
  vapor or sublimation pressure: 338 ± 2 kPa
319.15 K
  vapor or sublimation pressure: 349 ± 2 kPa
321.14 K
  vapor or sublimation pressure: 370 ± 2 kPa
323.14 K
  vapor or sublimation pressure: 392 ± 2 kPa
323.15 K
  vapor or sublimation pressure: 392 ± 2 kPa
325.15 K
  vapor or sublimation pressure: 415 ± 2 kPa
327.15 K
  vapor or sublimation pressure: 439 ± 2 kPa
328.12 K
  vapor or sublimation pressure: 451 ± 2 kPa
329.15 K
  vapor or sublimation pressure: 465 ± 2 kPa
331.15 K
  vapor or sublimation pressure: 491 ± 2 kPa
333.11 K
  vapor or sublimation pressure: 518 ± 2 kPa
333.15 K
  vapor or sublimation pressure: 519 ± 2 kPa
335.15 K
  vapor or sublimation pressure: 548 ± 2 kPa
337.15 K
  vapor or sublimation pressure: 578 ± 2 kPa
338.12 K
  vapor or sublimation pressure: 591 ± 2 kPa
339.15 K
  vapor or sublimation pressure: 609 ± 3 kPa
341.15 K
  vapor or sublimation pressure: 641 ± 3 kPa
343.07 K
  vapor or sublimation pressure: 672 ± 3 kPa
343.15 K
  vapor or sublimation pressure: 675 ± 3 kPa
345.15 K
  vapor or sublimation pressure: 710 ± 3 kPa
347.16 K
  vapor or sublimation pressure: 746 ± 3 kPa
348.16 K
  vapor or sublimation pressure: 764 ± 3 kPa
349.15 K
  vapor or sublimation pressure: 784 ± 3 kPa
351.15 K
  vapor or sublimation pressure: 823 ± 3 kPa
353.12 K
  vapor or sublimation pressure: 861 ± 3 kPa
353.16 K
  vapor or sublimation pressure: 863 ± 3 kPa
358.13 K
  vapor or sublimation pressure: 969 ± 3 kPa
363.14 K
  vapor or sublimation pressure: 1086 ± 3 kPa
368.09 K
  vapor or sublimation pressure: 1212 ± 3 kPa
372.61 K
  vapor or sublimation pressure: 1336 ± 4 kPa

From the NIST ThermoML archive (doi:10.1007/s10765-013-1553-5)
